Assay results taken from patent publication US10793526B2, “Hydantoin derivative compounds, methods of use and methods of treatment” (University of South Florida, priority 2016, dated 2020).
Where two headings read alike, the source gives them in different places.

Experiments:
[1] = test system: MRSA-induced lung inflammation; assay: Rat model of MRSA-induced pneumonia, pathological analysis (H&E); type: in vivo; conditions: 10 mg/kg i.v.
Procedure: The rat model of MRSA-induced pneumonia.^4, 5
The protocol of animal studies was approved by the institutional committee for animal care of Nanjing University, and the experiments were conducted following the regulation of the National Ministry of Health of China. In Brief, male Wistar rats (6-8 weeks, ˜200 g in average weight) were subjected to fast for 12 h. Next, rats were anesthetized by intraperitoneal administration of 0.35 g/kg of chloral hydrate. To induce MRSA pneumonia, the trachea of rats were exposed, to which 100 μL PBS containing 2×10^6 CFU/mL MRSA in PBS was slowly injected. The rats were retained upright for 1 min, and the cut was sealed. The MRSA infection was allowed to develop for 24 h.
The hydantoin compound 22 or vancomycin were used as antibiotics in the study. In brief, a dose of 10 mg/kg of the drug was injected to the tested rats intravenously. On the day of 3 and 5, rats were sacrificed, and lung sections were stained with hematoxylin and eosin (H&E), and their morphology was investigated under a light microscope at 100× magnification. The existence (indicated by the infiltration of neutrophils) and the extent of possible inflammatory response (indicated by the integrity of the alveolar structure and endothelium cilium) were recorded from at least five randomly picked sections by an experienced physician.

[2] = test system: methicillin-resistant S. aureus (MRSA, ATCC 33591); assay: Minimum inhibitory concentration (MIC) assay, MRSA; type: cell-based, Staphylococcus aureus; conditions: for MIC: Staphylococcus aureus
Procedure: (§1) Minimum inhibitory concentrations (MICs) assay.^2
(§2) All compounds were tested against six different bacteria strains: methicillin-resistant S. aureus (MRSA, ATCC 33591), E. coli (ATCC 25922), methicillin-resistant S. epidermidis (MRSE, RP62A), K. pneumoniae (ATCC 13383), vancomycin-resistant Enterococcus faecalis (VREF, ATCC 700802), P. aeruginosa (ATCC 27853). One colony of each bacteria was inoculated in 4 mL TSB buffer at 37° C. overnight, which was then diluted 100 times, and the bacteria were allowed to grow to the mid-logarithmic phase. 50 μL hydantoin compounds in 2-fold serial dilution of TSB were added in the 96-well plate, then 50 μL diluted bacterial in TSB medium (1×10^6 CFU/mL) was added to each well. After 16 h of incubation at 37° C., the absorption at 600 nm wavelength on a Biotek Synergy HT microtiter plate reader was recorded. Minimum inhibitory concentrations were determined as the lowest concentrations that inhibited bacteria growth completely.

[3] = test system: methicillin-resistant S. epidermidis (MRSE, RP62A); assay: Minimum inhibitory concentration (MIC) assay, MRSE; type: cell-based, Staphylococcus epidermidis; conditions: Gram positive, 16 h incubation; for MIC: Staphylococcus epidermidis, MRSE, read-out: MIC (μg/mL) MRSE
Procedure: as §1, §2

[4] = test system: vancomycin-resistant Enterococcus faecalis (VREF, ATCC 700802); assay: Minimum inhibitory concentration (MIC) assay, VREF; type: cell-based; conditions: 16 h incubation; for MIC: Enterococcus faecalis, ATCC700802, Gram positive, read-out: MIC (μg/mL) VREF; for MIC (μg/mL) VREF: Gram positive
Procedure: as §1, §2

E. coli (ATCC 25922) = assay: Minimum inhibitory concentration (MIC) assay, E. coli; type: cell-based, Escherichia coli; conditions: 16 h incubation; for MIC: Escherichia coli, ATCC25922, Gram negative, read-out: MIC (μg/mL) E. coli; for MIC (μg/mL) E. coli: Gram negative
Procedure: as §1, §2

[5] = test system: P. aeruginosa (ATCC 27853); assay: Minimum inhibitory concentration (MIC) assay, P. aeruginosa; type: cell-based, Pseudomonas aeruginosa; conditions: for MIC: Pseudomonas aeruginosa, ATCC27853, read-out: MIC (μg/mL) P.A.; for MIC / MIC (μg/mL) P.A.: Gram negative, ATCC 27853, 16 h incubation
Procedure: as §1, §2

[6] = test system: K. pneumoniae (ATCC 13383); assay: Minimum inhibitory concentration (MIC) assay, K. pneumoniae; type: cell-based, Klebsiella pneumoniae; conditions: 16 h incubation; for MIC: Klebsiella pneumoniae, ATCC13383, Gram negative, read-out: MIC (μg/mL) K.P.; for MIC (μg/mL) K.P.: Gram negative
Procedure: as §1, §2

[7] = test system: red blood cells (RBCs) of mice; assay: Hemolytic assay; type: cell-based
Procedure: Fresh red blood cells (RBCs) of mice were washed with 1×PBS buffer and centrifuged 10 min at 3500 rpm for 3 times until the supernatant was clear, then RBCs were diluted into 5% v/v suspension in 1×PBS. 50 μL compounds in PBS were 2-fold serially diluted in a 96-well plate, and incubated with 50 μL RBCs suspension for 1 h at 37° C. The mixture was then centrifuged for 10 min at 3500 rpm. Subsequently, 30 μL of the supernatant was added to 100 μL PBS, then the absorbance of mixture was read on a Biotek Synergy HT plate reader at 540 nm. The hemolytic activity was calculated by the formula % hemolysis=(Abssample−AbsPBS)/(AbsTriton−AbsPBS)×100%. 1% Triton X-100 were used as the positive control and 1×PBS buffer was used as the negative control.

[8] = test system: panel of Gram-positive and Gram-negative bacteria; assay: Antimicrobial activity against the whole panel of bacteria; type: cell-based; conditions: for antimicrobial activity across the tested bacterial strains: all tested strains; for antibacterial activity of compounds with HPLC RT values less than 26 min: statement relating activity to retention time
Procedure: as §1, §2

[9] = Gram positive, ATCC 33591, 16 h incubation, read-out: MIC (μg/mL) MRSA
[10] = hemolytic activity, mouse RBCs, 1 h at 37° C.
[11] = Gram positive, ATCC 33591, 16 h incubation

Row | SMILES | lung inflammation (H&E staining), day not given [1] | MIC [2, 9] | MIC [3] | MIC [4] | MIC (E. coli (ATCC 25922)) | MIC [5] | MIC [6] | HC50 [7, 10] | MIC (μg/mL) MRSA [2, 11] | MIC of MRSA ([2]; Table 2) | MIC (μg/mL) MRSE [3] | MIC (μg/mL) VREF [4] | MIC (μg/mL) E. coli (E. coli (ATCC 25922)) | MIC (μg/mL) P.A. [5] | MIC (μg/mL) K.P. [6] | HC50 [7] | antimicrobial activity across the tested bacterial strains [8] | MIC ([2]; Table 2, read-out: MIC of MRSA) | antibacterial activity of compounds with HPLC RT values less than 26 min [8] | activity toward Pseudomonas aeruginosa ([5]; under the tested condition)
1 | CN[C@H](CC(C)C)C(=O)N[C@H]1C(=O)N[C@@H](CC(N)=O)C(=O)N[C@H]2C(=O)N[C@H]3C(=O)N[C@H](C(=O)N[C@H](C(=O)O)c4cc(O)cc(O)c4-c4cc3ccc4O)[C@H](O)c3ccc(c(Cl)c3)Oc3cc2cc(c3O[C@@H]2O[C@H](CO)[C@@H](O)[C@H](O)[C@H]2O[C@H]2C[C@](C)(N)[C@H](O)[C@H](C)O2)Oc2ccc(cc2Cl)[C@H]1O [vancomycin, reference compound] | alleviated condition |  |  |  |  |  |  |  |  |  |  |  |  |  |  |  |  |  |  | 
2 | CCCCCCCCCCCC(=O)N[C@@H](CCCCN)CN1CC(=O)N(C2CCCCC2)C1=O [Compound 10, (S)—N-(6-amino-1-(3-cyclohexyl-2,4-dioxoimidazolidin-1-yl)hexan-2-yl)dodecanamide] |  | 6.25 µg/mL | 6.25 µg/mL | 12.5 µg/mL | 6.25 µg/mL | 12.5 µg/mL | 6.25 µg/mL | 100 µg/mL |  |  |  |  |  |  |  |  |  |  |  | 
3 | CCCCCCCCCC(=O)N[C@@H](CCCCN)CN1CC(=O)N(C23CC4CC(CC(C4)C2)C3)C1=O [Compound 13, N—((S)-1-(3-((3R,5R,7R)-adamantan-1-yl)-2,4-dioxoimidazolidin-1-yl)-6-aminohexan-2-yl) decanamide] |  |  |  |  |  |  |  |  | 6.25 µg/mL | 6.25 µg/mL | 6.25 µg/mL | 12.5 µg/mL | 6.25 µg/mL | 12.5 µg/mL | 6.25 µg/mL | 125 µg/mL | exhibits decent activity across the panel of bacteria |  |  | 
4 | CCCCCCCCCC(=O)N[C@@H](CCCCN)CN1CC(=O)N(c2cccc(Cl)c2)C1=O [Compound 21, (S)—N-(6-amino-1-(3-(3-chlorophenyl)-2,4-dioxoimidazolidin-1-yl)hexan-2-yl)decanamide] |  |  | 6.25 µg/mL | 12.5 µg/mL | 6.25 µg/mL | 6.25 µg/mL | 6.25 µg/mL | 100 µg/mL |  |  |  |  |  |  |  |  |  | 6.25 µg/mL |  | 
5 | CCCCCCCCCCCC(=O)N[C@@H](CCCCN)CN1CC(=O)N(c2ccc(OC)cc2)C1=O [Compound 18, (S)—N-(6-amino-1-(3-(4-methoxyphenyl)-2,4-dioxoimidazolidin-1-yl)hexan-2-yl)dodecan amide] |  |  |  |  |  |  |  |  | 25 µg/mL | 25 µg/mL | 25 µg/mL | 25 µg/mL | 12.5 µg/mL | 12.5 µg/mL | 12.5 µg/mL | 200 µg/mL |  |  | no apparent antibacterial activity | 
6 | CCCCCCCCCCCC(=O)N[C@@H](CCCCN)CN1CC(=O)N(CCCC)C1=O [Compound 6, (S)—N-(6-amino-1-(3-butyl-2,4-dioxoimidazolidin-1-yl)hexan-2-yl)dodecanamide] |  | 12.5 µg/mL | 25 µg/mL | 25 µg/mL | 6.25 µg/mL | 25 µg/mL | 12.5 µg/mL | 80 µg/mL |  |  |  |  |  |  |  |  |  |  | no apparent antibacterial activity | 
7 | CCCCCCCCCCCCCC(=O)N[C@@H](CCCCN)CN1CC(=O)N(CC)C1=O [Compound 3, (S)—N-(6-amino-1-(3-ethyl-2,4-dioxoimidazolidin-1-yl)hexan-2-yl)tetradecanamide] |  | 6.25 µg/mL | 6.25 µg/mL | 6.25 µg/mL | 3.12 µg/mL | 12.5 µg/mL | 6.25 µg/mL | 90 µg/mL |  |  |  |  |  | 12.5 µg/mL |  |  | comparable activity to nitrofurantoin against most strains |  |  | 
8 | CCCCCCCCCCCCCCCC(=O)N[C@@H](CCCCN)CN1CC(=O)N(CC)C1=O [Compound 4, (S)—N-(6-amino-1-(3-ethyl-2,4-dioxoimidazolidin-1-yl)hexan-2-yl)palmitamide] |  | 3.12 µg/mL | 3.12 µg/mL | 3.12 µg/mL | 3.12 µg/mL | > 50 µg/mL | 12.5 µg/mL |  |  |  |  |  |  |  |  |  |  |  | no apparent antibacterial activity | abolishes its activity
